Measurements as given in publication PMC10467082, “Anti-Toxoplasma gondii Effects of Lipopeptide Derivatives of Lycosin-I” (Toxins, 2023).

Columns and labels:
Toxoplasma [1] = settings: mouse; cited from earlier work
Text: We established a mouse model acutely infected with tachyzoites, recorded the survival time of the mice and determined the parasite load in the tissues of the mice. Lycosin-I and L-an can effectively prolong the survival time of mice.

TNF-α = type: in vivo, mouse; settings: mouse, in vivo
Experimental: (§1) Once T. gondii has infected a host, a number of inflammatory responses can be induced in the host to resist T. gondii invasion and proliferation. Therefore, we wanted to investigate the expression levels of anti-inflammatory and pro-inflammatory factors in the mice treated with lipopeptides. The expression levels of IFN-γ, TNF-α, IL-4 and IL-10 in the spleen tissues of mice after 5 days of treatment were determined via qRT-PCR (Figure 5). […] Compared to the PBS group, all treatment groups promoted the upregulation of the pro-inflammatory cytokines IFN-γ and TNF-α and the anti-inflammatory cytokine IL-4.
(§2) Total RNA was extracted from each sample using Total RNA Isolation Kit (ENOVA BIO Co., Ltd., Wuhan, China), in accordance with the manufacturer’s instructions. Reverse transcription of RNA into cDNA was performed using the PerfectStart Uni RT&qPCR Kit (TransGen Biotech Co., Ltd., Beijing, China) in accordance with the instructions. cDNA was used as a template for qRT-PCR using PerfectStart Uni RT&qPCR Kit (TransGen Biotech Co., Ltd., Beijing, China). Primers, listed in Table 2, were designed and synthesized by a biotechnology company (Sangon Biotech Co., Ltd., Shanghai, China). Analysis was performed using the comparative threshold cycle method (2^−∆∆Ct). The gene expression levels of genes were normalized to those of housekeeping genes (β-actin or GAPDH).

IL-10 = type: in vivo, mouse; settings: mouse, in vivo
Experimental: as §1, §2

IL-4 = type: in vivo, mouse; settings: mouse, in vivo
Experimental: as §1, §2

IFN-γ = type: in vivo, mouse; settings: mouse, in vivo
Experimental: as §1, §2

T. gondii tachyzoites [2] = settings: mouse, in vivo
Experimental: Therefore, the mice were treated with 4 mg/kg/day of SDZ or lipopetides for 7 days, and the survival time of the mice was closely monitored for 15 days. […] We also determined the parasite load in the peritoneal fluid and tissues of mice acutely infected with T. gondii after 5 days of treatment. The number of tachyzoites in the peritoneal fluid of the mice was directly counted using a blood cell counting plate (Figure 4B), while the expression of the surface antigen SAG1, a membrane surface protein specific to tachyzoites, was detected via qRT-PCR in the heart, liver, spleen, lung and brain of the mice (Figure 4C–G).
as §2

Toxoplasma [3] = settings: cited from earlier work
Text: To evaluate the efficacy of the lipopeptides in vivo, we established a mouse model of acute T. gondii infection.

RH strain of T. gondii = type: in vivo, mouse; settings: mouse, in vivo, ip, 4 mg/kg/day
Experimental: To evaluate the anti-T. gondii effect of lipopeptides in vivo, we established a mouse model acutely infected with the RH strain of T. gondii. Forty 8-week-old female BALB/c mice weighing 17–19 g were randomly divided into 5 groups (n = 8 per group) and intraperitoneally injected with 1 × 10^3 tachyzoites per mouse. Lycosin-I, L-C12, L-an and sulfadiazine (SDZ) were dissolved in PBS, respectively. As these peptides are small linear peptides that are easily degraded by pepsin; mice were treated with these peptides via intraperitoneal injection (the same way that the mice were infected with T. gondii) rather than oral gavage. After 4 h of infection, mice were traperitoneally injected with 4 mg/kg of Lycosin-I, L-C12, L-an and sulfadiazine solution (once a day) for 7 days. Mice in the negative control group were treated with PBS. Mice in this condition observed daily and the time of death was recorded. The experiment was approved by the Ethics Committee of the School of Basic Medicine of Central South University (approval number: 2021-KT24).

T. gondii tachyzoites [4] = type: cell-based, Toxoplasma gondii
Experimental: The HFF cells were seeded in 6-well plates (1 × 10^6 cells per well) and incubated for 48–72 h. Cells in the 6-well plates were infected with 500 fresh tachyzoites per well for 2 h. The well in which cells were not infected with tachyzoites was considered the blank control group. Cells infected with tachyzoites were then treated with Lycosin-I (10 μM), L-C12 (10 μM), L-an (10 μM), SDZ (10 μM, positive control) and DMEM (negative control), respectively. After 7 days, HFFs in the plates were washed twice with PBS, fixed with methanol for 5 min, and then stained with crystal violet for 20 min. Six-well plates were washed with running water, dried, photographed, and then the number and area of plaques were counted using Photoshop version 2020. Three independent experiments were carried out.

Nc1ccc(S(=O)(=O)Nc2ncccn2)cc1 [SDZ, Sulfadiazine]
anti-Toxoplasma effect in vivo (Toxoplasma [1]): anti-Toxoplasma effect was also observed
expression of TNF-α in spleen compared to PBS group (TNF-α): promoted the expression
expression of IL-10 in spleen compared to PBS group (IL-10): inhibited the upregulation of IL-10
expression of IL-4 in spleen compared to PBS group (IL-4): promoted IL-4 expression
expression of IFN-γ in spleen compared to PBS group (IFN-γ): promoted the expression
parasite load in peritoneal fluid and tissues compared to PBS group (T. gondii tachyzoites [2]): effectively inhibit the proliferation of tachyzoites in mice
anti-Toxoplasma effect in vitro (Toxoplasma [3]): anti-Toxoplasma effect was also observed
survival time of mice compared to control group (RH strain of T. gondii): could not prolong the survival time
number and area of plaques in contrast with DMEM group (T. gondii tachyzoites [4]): significantly reduced
plaques compared to DMEM group (T. gondii tachyzoites [4]): no obvious plaque
